Here are results for 1 molecule from patent publication US20230020507A1, “COMPOUND AND USE THEREOF IN TREATING AUTOIMMUNE DISEASES” (PARENCHYMA BIOTECH INC., priority 2019, published 2023).

Assay [1] deals with AOM/DSS-induced colon cancer in C57BL/6 mice. Description: AOM/DSS-induced colon cancer mouse model, number of tumors per colon. Format: in vivo. Particulars: 20 mg/kg oral daily 7th to 21st day, 93rd day, solvent control 11.33±4.33. From the text: Sterile distilled water was provided for drinking from the 8th day of the experiment.
Assay [2] concerns IFN-γ, IL-17A, IL-1β, IL-10 and Foxp3 expression in spinal cord lesions. Description: mRNA expression of inflammatory and immunomodulatory factors in spinal cord of EAE mice (real-time PCR). Format: in vivo, mouse. Particulars: 20 mg/kg i.p., 42nd day, compared to solvent control. From the text: On the 42nd day of the experiment, the spinal cord of the mouse was excised to prepare an mRNA sample. In order to extract mRNA, the spinal cord tissue was ground with a homogenizer to obtain a homogeneous suspension. […] Then, cDNA was synthesized from the isolated RNA by reverse transcription, and the expression of inflammatory cytokines was investigated through real-time polymerase chain reaction (PCR) using iQ SYBR-Green Supermix (Bio-rad) in the CFX96 (Bio-rad) detection system. Relative values of the enzyme expression levels were compared by the ΔΔct method using GAPDH as a control enzyme. Herein, one (1) fold was set using the WT mouse spinal cord as a control.
The real-time polymerase chain reaction was implemented under the conditions of cycles at an annealing temperature of 58° C., and the following primer sequences were used.
On the technique in general: Real-time PCR tracks product formation cycle by cycle.

The test system of assay [3] is IL-1β, IL-6, IL-17A, TNF-α, IL-10 and Foxp3 expression in colon lesions. Put plainly: mRNA expression of inflammatory and immunomodulatory factors in colon of DSS mice (real-time PCR). Format: in vivo, mouse. Particulars: 20 mg/kg oral, 15th day, compared to solvent control. From the text: On the 15th day of the experiment, the colon of the mouse was excised to prepare an mRNA sample. In order to extract mRNA, the colon tissue was ground with a homogenizer to acquire a homogeneous suspension. […] From the isolated RNA, cDNA was synthesized by reverse transcription followed by confirming the expression of inflammatory cytokines through real-time polymerase chain reaction (PCR) using iQ SYBR-Green Supermix (Bio-rad) in the CFX96 (Bio-rad) detection system. Relative values of the enzyme expression levels were compared by the ΔΔct method using GAPDH as a control enzyme. Herein, one (1) fold was set using the normal mouse colon as a control.
The real-time polymerase chain reaction was implemented under the conditions of cycles at an annealing temperature of 58′° C. and the following primer sequences were used.

For `O=C(Cc1c[nH]c2ccc(Cl)cc12)Nc1ccc(Cl)c(F)n1` [Compound 26, 2-(5-chloro-1H-indol-3-yl)-N-(5-chloro-6-fluoropyridin-2-yl)acetamide], the “number of tumors in the colon” value in assay [1] came out at 3.17±1.17. In assay [2], the “expression level of Foxp3 in spinal cord lesions” value is “significantly increased”, the “expression level of IFN-γ in the spinal cord lesion” value is given as “significantly reduced”, the “expression level of IL-1β in the spinal cord lesion” value was “significantly reduced” and the “expression level of IL-10 in spinal cord lesions” value is “significantly increased”. Besides, the “expression level of IL-17A in the spinal cord lesion” value in assay [2] is “significantly reduced”. For the same molecule, in assay [3], the “expression level of Foxp3 in the colon lesion” value is on record as “significantly increased”, the “expression level of IL-1β in colon lesions” value is recorded as “significantly reduced”, the “expression level of IL-6 in colon lesions” value is “significantly reduced” and the “expression level of IL-10 in the colon lesion” value is listed as “significantly increased”. Moreover, in assay [3], the “expression level of IL-17A in colon lesions” value is given as “significantly reduced” and the “expression level of TNF-α in colon lesions” value is “significantly reduced”.
